Data from patent publication US20040265323A1, “Compositions comprising pathogen elicited epithelial chemoattractant (eicosanoid hepoxilin A3), inhibitors thereof and methods of use thereof” (priority 2003, published 2004).
“Also recorded” adds a separate entry of the source.

Legend:
Type in all cases: cell-based, human
[1] = tested on: PMN transmigration across T84 cell monolayers; test: PMN transepithelial migration to imposed gradients of lipids across T84 monolayers; details: imposed gradients across T84 cell monolayers, basolateral-to-apical
Description: Crude preparations of PEEC were collected from the apical surface of polarized T84 cell monolayers following infection with S. typhimurium SL1344 as previously described (McCormick et al., 1998). For these experiments, T84 intestinal epithelial cells (passages 45 to 65) were grown in a 1:1 mixture of Dulbecco-Vogt modified Eagles medium and Ham's F-12 medium supplemented with 15 mM Hepes buffer (pH 7.5), 14 mM NaHCO3, 40 mg/liter penicillin, 8 mg/liter ampicillin, 90 mg/liter streptomycin and 5% newborn calf serum. Polarized monolayers of T84 cells were formed and maintained on 0.33 cm^2 ring-supported collagen-coated polycarbonate filters (Costar Corp., Cambridge, Mass.) as previously described (Madara et al., 1992) with recently detailed modifications (Dharmsathaphorn and Madara, 1990). T84 cell monolayers reached a steady-state resistance 4 to 6 days after plating with some variability largely related to cell passage number. Cell culture inserts of inverted monolayers, used to study transmigration of PMN in the physiological basolateral-to-apical direction, were constructed as previously described (Madara et al., 1992; Dharmsathaphorn and Madara, 1990; Nash et al., 1991).
(§1) It was further examined if hepoxilin A3 acts in a gradient fashion to drive PMN migration from the basolateral to the apical epithelial surface. For these experiments, the physiologically directed (basolateral-to-apical) PMN transepithelial migration assay using cell culture inserts of inverted T84 monolayers has been used (McCormick et al., 1993; Parkos et al., 1992). Human PMN were isolated from normal volunteers, as described elsewhere (Parkos et al., 1992; Henson and Oades, 1975). PMN transmigration results were represented as PMN cell equivalents (CE) derived from a daily standard PMN dilution curve. PMN which completely traversed the monolayer were represented as the number of PMN (CE/ml in a total volume of 1 ml). Values were expressed as the mean and SD of an individual experiment done in triplicate repeated at least 3 times.
Arachidonic acid is the initial substrate used by a variety of metabolic pathways involving lipoxygenase (LO) activities—enzymes that add hydroxyl groups at specific carbon atoms of this 20-carbon fatty acid. […] Therefore, in addition to hepoxilin A3, a wide range of arachidonic acid metabolites for their ability to incite the transmigration of PMNs across T84 monolayers in vitro was examined (Table 1). […] This is consistent with previous reports that LTB4 is capable of inducing PMN transmigration.

PMN [2] = test: PMN intracellular Ca2+ mobilization; details: 5 μg/ml, FIG. 4B
Source text: Further, crude PEEC preparations were collected from postinfected T84 cells monolayers. Samples were first passed through an Amicon ultra-filtration apparatus (Millipore Corp.; Bedford, Mass.) fitted with a 2,000 Da cut-off membrane. Filtrate components were bound to a Backerbond spe™ octadecyl extraction column (J. T. Baker; Philipsburg, N.J.) that was subsequently eluted with water, hexane, and finally methanol. The methanol fraction was dried under vacuum and resuspended in 50:50 (vol:vol) methanol:2 mM Tris HCl (pH 7.5) and injected onto a Vydac C18 (10 μm; 300 Å) semi-preparative column ([…]) equilibrated with 2 mM Tris-HCl (pH 7.5). A methanol gradient of 1-10% over 10 minutes, then 10-60% over 25 minutes, followed by 60-100% over 45 minutes (all at room temperature) was used to isolate active PEEC fractions. Active fractions, having no detectable absorbance at 280 nm and weak absorbance at 214 nm, were analyzed using a Genesis C18 (4 μm, 120 Å) analytical HPLC column (4.6×150 mm) equilibrated with 5 mM triethylamine/acetic acid (pH 7.2). […] (FIG. 2A and B).
(§2) To substantiate the notion that hepoxilin A3 was in fact the molecule responsible for PEEC bioactivity, it was examined whether synthetic hepoxilin A3 (BIOMOL, Plymouth Meeting, Pa.) could recapitulate PEEC bioactivity. […] Thus, authentic hepoxilin A3 recapitulates all known aspects of PEEC bioactivity consistent with the notion that hepoxilin A3 is in fact PEEC's active component.

PMN [3] = test: PMN degranulation assessed by elastase release
Source text: as §2

[4] = tested on: S. typhimurium-induced PMN transepithelial migration, T84 cells; test: Inhibition of S. typhimurium-induced PMN transepithelial migration across T84 monolayers; details: for inhibition of S. typhimurium-induced PMN transepithelial migration: T84 incubated 1 hour with inhibitor, FIG. 9
Source text: as §1, with “PMN transmigration results were represented as PMN cell equivalents (CE) derived from a daily standard PMN dilution curve.” left out
Hepoxilin A3 is formed via the 12-lipoxygenase (LO) metabolism pathway of arachidonic acid. Therefore, the involvement of the 12-LO pathway in the ability of the enteric pathogen, S. typhimurium, to induce PMN transepithelial migration and elicit PEEC secretion was tested. […] For 12-LO inhibition, HBSS(+)-washed T84 cell monolayers were incubated in the presence baicalein [stock concentration at 1 mM in DMSO] for 48 hours at 37° C. Subsequently, S. typhimurium SL1344 was added to the apical surface of the T84 monolayers and after an incubation of 1 hour at 37° C., the cells were washed free of non-adherent bacteria and then processed for the PMN transmigration assay. […] For 5-LO inhibition, the T84 cells were washed with HBSS(+) and then were incubated for 24 hours in the presence of caffeic acid (stock concentration at 22 mM in DMSO). Both inhibitors were purchased form Biomol, Plymouth Meeting, Pa.
In each instance, the T84 cell monolayers were incubated for […] in the presence of the inhibitor prior to the addition of S. typhimurium.

IL-8 secretion = IL-8 secretion by S. typhimurium infected T84 cell monolayers; details: S. typhimurium infected T84, caffeic acid 22 μM
[5] = tested on: PEEC/hepoxilin A3 secretion; test: Apical PEEC/hepoxilin A3 release from S. typhimurium infected T84 cell monolayers
Source text: T84 cell monolayers were infected with S. typhimurium in the absence or presence of the 12-LO enzyme inhibitor and apical supernatants were examined for PEEC bioactivity. […] Moreover, since it had been previously shown that S. typhimurium via its effector SipA initiates an ARF6-dependent lipid-signaling cascade that directs the activation of PKC and release of PEEC, it was further examined if blocking PKC activity (which would occur upstream of 12-LO) also corresponds with a reduction in hepoxilin A3 bioactivity and release, as one would predict.

CCCCC/C=C\C[C@@H](O)/C=C/C=C\C/C=C\CCCC(=O)O [12(R)-HETE]
PMN transepithelial migration (PEEC activity) induced by added lipid [1]: no PMN transmigration activity was observed | intracellular Ca2+ in PMN (PMN [2]): failed to cause an increase in Ca^2+ mobilization

CCCCC[C@H](O)/C=C/C=C\C/C=C\C/C=C\CCCC(=O)O [15(S)-HETE]
PMN transepithelial migration (PEEC activity) induced by added lipid [1]: only a low activity of PMN transmigration was observed

CCCCC/C=C\C/C=C\CCCCCCCC(=O)O [linoleic acid]
PMN transepithelial migration (PEEC activity) induced by added lipid [1]: failed to demonstrate any PEEC activity

CCCCC/C=C\C[C@@H](O)/C=C/C=C/C=C\[C@@H](O)CCCC(=O)O [LTB4]
PMN degranulation (PMN [3]): causes activation and degranulation

O=C(O)/C=C/c1ccc(O)c(O)c1 [caffeic acid]
S. typhimurium-induced PMN transepithelial migration with lipoxygenase inhibitor ([4]; T84 pre-treated: baicalein 48 hours, caffeic acid 24 hours): failed to prevent S. typhimurium-induced PMN transepithelial migration; also recorded: no inhibition | IL-8 secretion (IL-8 secretion): 558 ± 26 pg/mL

CCCCC/C=C\C[C@@H]1O[C@H]1C(O)/C=C\C/C=C\CCCC(=O)O (stereo partly shown) [hepoxilin B3]
PMN transepithelial migration (PEEC activity) induced by added lipid [1]: inactive; also recorded: failed to support events observed with hepoxilin A3

CCCCC/C=C\C/C=C\C/C=C\C/C=C\CCCC(=O)O [Arachidonic acid]
PMN transepithelial migration (PEEC activity) induced by added lipid [1]: could enhance the amount of PMN transmigration

COc1ccc2c(c[n+](C)c3c4cc5c(cc4ccc23)OCO5)c1OC.[Cl-] [chelerethyrine chloride]
PEEC/hepoxilin A3 release ([5]; 5 μM prior to infection with wild-type S. typhimurium): < 1.0 pmol

CCCN(CCC)S(=O)(=O)c1ccc(C(=O)O)cc1 [probenecid]
inhibition of S. typhimurium-induced PMN transepithelial migration [4]: significantly inhibited

C=C(CC)C(=O)c1ccc(OCC(=O)O)c(Cl)c1Cl [ethacrynic acid]
inhibition of S. typhimurium-induced PMN transepithelial migration [4]: significantly inhibited

CC[C@]1(O)C[C@@H]2CN(CCc3c([nH]c4ccccc34)[C@@](C(=O)OC)(c3cc4c(cc3OC)N(C)[C@H]3[C@@](O)(C(=O)OC)[C@H](OC(C)=O)[C@]5(CC)C=CCN6CC[C@]43[C@@H]65)C2)C1 [vinblastine]
inhibition at 0.0005 µM ([5]; Homo sapiens, ~0.5 nM, pathogen-induced, T84, read-out: inhibition of hepoxilin A3 secreted): ~60%

CCCCC/C=C\C/C=C\C/C=C\C=C\C(=O)CCCC(=O)O [5-KETE]
PMN transepithelial migration (PEEC activity) induced by added lipid [1]: failed to effect a transmigration of PMNs

CCCCC/C=C\C[C@H](O)/C=C/C=C\C/C=C\CCCC(=O)O [12(S)-HETE]
PMN transepithelial migration (PEEC activity) induced by added lipid [1]: no PMN transmigration activity was observed

CCCCC/C=C\C[C@@H](O)/C=C/C=C/C=C/[C@@H](O)CCCC(=O)O (relative stereo) [trans LTB4]
PMN transepithelial migration (PEEC activity) induced by added lipid [1]: failed to support events observed with hepoxilin A3
